Read-outs that look alike come from different tables or passages of the source.
Columns and labels:
NCIH460 = assay: Anti-cancer screen (MTT), NCIH460; type: cell-based; details: Homo sapiens, NCI-H460, 48 hours with compound, tested at 0.01-100 µM
Protocol: (§1) Experimental drugs are screened for anti-cancer activity in three cell lines for their GI50, TGI and LC50 values (using five concentrations for each compound). The cell lines are maintained in DMEM containing 10% fetal bovine serum. 96 well micro titer plates are inoculated with cells in 100 µL for 24 hours at 37° C., 5% CO2, 95% air and 100% relative humidity. 5000 HCT 116 cells/well, 5000 NCIH 460 cells/well and 5000 U251 cells/well are plated. A separate plate with these cell lines is also inoculated to determine cell viability before the addition of the compounds (T0).
(§2) Following 24-hour incubation, experimental drugs are added to the 96 well plates. Each plate contains one of the above cell lines and the following in triplicate: five different concentrations (0.01, 0.1, 1, 10 and 100 µM) of four different compounds, appropriate dilutions of a cytotoxic standard and control (untreated) wells. Compounds are dissolved in DMSO to make 20 mM stock solutions on the day of drug addition and frozen at −20° C. Serial dilutions of these 20 mM stock solutions are made in complete growth medium such that 100 µL of these drug solutions in medium, of final concentrations equaling 0.01, 0.1, 1, 10 and 100 µM can be added to the cells in triplicate. Standard drugs whose anti-cancer activity has been well documented and which are regularly used are doxorubicin and SAHA.
(§3) For T0 measurement, 24 hours after seeding the cells, 10 µL of 3-(4,5-Dimethyl-2-thiazolyl)-2,5-diphenyl-2H-tetrazolium (MTT) solution per well is added and incubation carried out for 3 hours at 37° C., 5% CO2, 95% air and 100% relative humidity, protected from light. Cells incubated with compounds for 48 hours are treated similarly except with the addition of 20 µl MTT solution per well and a subsequent incubation under the same conditions. After 3 hours of MTT incubation, well contents are aspirated carefully followed by addition of 150 µL DMSO per well. Plates are agitated to ensure solution of the formazan crystals in DMSO and absorbance read at 570 nm.
(§4) Percent growth is calculated for each compound's concentration relative to the control and zero measurement wells (T0; viability right before compound addition). If a test well's O.D. value is greater than the T0 measurement for that cell line
(§5) %Growth=(test−zero)/(control−zero)×100
(§6) If a test well's O.D. value is lower than the T0 measurement for that cell line, then,
(§7) %Growth=(test−zero)/zero×100

HCT116 = assay: Anti-cancer screen (MTT), HCT116; type: cell-based; details: Homo sapiens, HCT-116, 48 hours with compound, tested at 0.01-100 µM; for CC50: read-out: HCT116 LC50
Protocol: as §1, §2, §3, §4, §5, §6, §7

MDAMB-231/U 251 = assay: Anti-cancer screen (MTT), MDAMB-231/U 251; type: cell-based; details: for CC50: read-out: MDAMB-231/U 251 LC50
Protocol: as §1, §2, §3, §4, §5, §6, §7

[1] = test system: NCIH460, HCT116, MDAMB-231/U 251; assay: Anti-cancer screen, mean GI50 over the cell lines; type: cell-based; details: in µM
Protocol: as §1, §2, §3, §4

HDAC = HDAC inhibition; type: biochemical; details: for HDAC Inhibition 1 μM: compound at 1 μM; for HDAC Inhibition 10 μM: compound at 10 μM
[2] = 48 hours with compound, MTT, tested at 0.01-100 µM

| SMILES | GI50 (NCIH460) [µM] | IC (TGI) (NCIH460) [µM] | LC50 (NCIH460) [µM] | GI50 (HCT116) [µM] | IC (TGI) (HCT116) [µM] | LC50 (concentration giving 50% net cell kill relative to T0) (HCT116) [µM] | CC50 (MDAMB-231/U 251; 48 h) [µM] | GI50 (MDAMB-231/U 251; [2]) [µM] | IC (TGI) (MDAMB-231/U 251; [2]) [µM] | Mean GI50 [1] | HDAC Inhibition 1 μM (HDAC) | HDAC Inhibition 10 μM (HDAC) | CC50 (HCT116) [µM] | CC50 (MDAMB-231/U 251; [2]) [µM] |
| --- | --- | --- | --- | --- | --- | --- | --- | --- | --- | --- | --- | --- | --- | --- |
| O=C(Cc1csc(NC(=O)OCc2ccsc2)n1)NO [Example 3, 3-Thienylmethyl{4-[2-(hydroxyamino)-2-oxoethyl]-1,3-thiazol-2-yl}carbamate] | 30 | > 100 | > 100 | > 100 | > 100 | > 100 | > 100 | 32 | > 100 | 31 | −4.03 | 22.89 | – | – |
| O=C(Cc1csc(NC(=O)OCc2ccncc2)n1)NO [Example 4, Pyridin-4-ylmethyl{4-[2-(hydroxyamino)-2-oxoethyl]-1,3-thiazol-2-4.yl}carbamate] | 20 | > 100 | > 100 | > 100 | > 100 | > 100 | > 100 | 6 | > 100 | 13 | 5.6 | 38.13 | – | – |
| O=C(Cc1csc(NC(=O)OCC2COc3ccccc3O2)n1)NO (stereo not drawn) [Example 5, 2,3-Dihydro-1,4-benzodioxin-2-ylmethyl{4-[2-(hydroxyamino)-2-oxoethyl]1,3-thiazol-2-yl}carbamate] | 18 | 76 | > 100 | 40 | 80 | > 100 | > 100 | 6 | 78 | 21.3 | 0.65 | 29.29 | – | – |
| O=C(Cc1csc(NC(=O)OCc2ccc(Br)s2)n1)NO [Example 6, (5-Bromo-2-thienyl)methyl{4-[2-(hydroxyamino)-2-oxoethyl]-1,3-thiazol-2-yl}carbamate] | 2 | 80 | > 100 | 65 | > 100 | – | – | 5 | 82 | 24 | 8.8 | 47.27 | > 100 | > 100 |
| O=C(Cc1csc(NC(=O)OCc2cc(Br)cs2)n1)NO [Example 7, (4-Bromo-2-thienyl)methyl{4-[2-(hydroxyamino)-2-oxoethyl]-1,3-thiazol-2-yl}carbamate] | 10 | 70 | > 100 | 25 | 80 | – | – | 15 | 74 | 16.7 | 7.07 | 46.41 | > 100 | > 100 |
| Cc1ncsc1COC(=O)Nc1nc(CC(=O)NO)cs1 [Example 8, (4-Methyl-1,3-thiazol-5-yl)methyl{4-[2-(hydroxyamino)-2-oxoethyl]-1,3-thiazol-2-yl}carbamate] | > 100 | > 100 | > 100 | > 100 | > 100 | – | – | 0.5 | > 100 | >100 | 0.96 | 17.80 | > 100 | > 100 |
| O=C(Cc1csc(NC(=O)OCc2nc3ccccc3s2)n1)NO [Example 9, 1,3-Benzothiazol-2-ylmethyl{4-[2-(hydroxyamino)-2-oxoethyl]-1,3-thiazol-2-yl}carbamate] | 73 | > 100 | > 100 | 48 | > 100 | > 100 | > 100 | 38 | > 100 | 53 | 17.52 | 46.21 | – | – |
| O=C(Nc1nc(CC(=O)N2CCOCC2)cs1)OCc1cccnc1 [Example 10, pyridin-3-ylmethyl[4-(2-morpholin-4-yl-2-oxoethyl)-1,3-thiazol-2-yl]carbamate] | 55 | > 100 | > 100 | > 100 | > 100 | > 100 | > 100 | 0.4 | 27 | 26.7 | −9.85 | 0.14 | – | – |
| O=C(Nc1nc(CC(=O)N2CCCCC2)cs1)OCc1cccnc1 [Example 12, Pyridin-3-ylmethyl[4-(2-oxo-2-piperidin-1-ylethyl)-1,3-thiazol-2-yl]carbamate] | 50 | 100 | > 100 | > 100 | > 100 | > 100 | > 100 | 50 | > 100 | 50 | – | 10.83 | – | – |
| O=C(Cc1csc(NC(=O)OCc2cccnc2)n1)NC1CCN(Cc2ccccc2)CC1 [Example 17, Pyridin-3-ylmethyl(4-{2-[(1-benzylpiperidin-4-yl)amino]-2-oxoethyl}-1,3-thiazol-2-yl)carbamate] | 80 | > 100 | > 100 | 82 | > 100 | > 100 | > 100 | 2.5 | 50 | 54.8 | – | 3.61 | – | – |
| Nc1ccccc1NC(=O)Cc1csc(NC(=O)OCc2cccnc2)n1 [Example 18, Pyridin-3-ylmethyl(4-{2-[(2-aminophenyl)amino]-2-oxoethyl}-1,3-thiazol-2-yl)carbamate] | 100 | > 100 | > 100 | > 100 | > 100 | > 100 | > 100 | 12 | > 100 | >100 | 2.19 | 7.99 | – | – |
| O=C(Cc1csc(NC(=O)OCc2cccnc2)n1)Nc1ccccc1O [Example 19, Pyridin-3-ylmethyl(4-{2-[(2-hydroxyphenyl)amino]-2-oxoethyl}-1,3-thiazol-2-yl)carbamate] | 1 | 60 | > 100 | 34 | > 100 | > 100 | > 100 | 7.6 | 80 | 14.2 | – | 0.50 | – | – |
| Nc1ccccc1NC(=O)Cc1csc(NC(=O)OCc2nc3ccccc3s2)n1 [Example 21, 1,3-Benzothiazol-2-ylmethyl(4-{2-[(2-aminophenyl)amino]-2-oxoethyl}-1,3-thiazol-2-yl)carbamate] | 15 | > 100 | > 100 | 8 | > 100 | > 100 | > 100 | 4 | 9 | 9 | 4.41 | 0.57 | – | – |

Source: patent US20100152188A1, “Novel Heterocyclic Compounds” (priority 2005, published 2010)
